Assay [1] concerns the target T1, ABHD6 (Mus musculus, UniProt Q8R2Y0).
T1 sequence (Q8R2Y0 1-336): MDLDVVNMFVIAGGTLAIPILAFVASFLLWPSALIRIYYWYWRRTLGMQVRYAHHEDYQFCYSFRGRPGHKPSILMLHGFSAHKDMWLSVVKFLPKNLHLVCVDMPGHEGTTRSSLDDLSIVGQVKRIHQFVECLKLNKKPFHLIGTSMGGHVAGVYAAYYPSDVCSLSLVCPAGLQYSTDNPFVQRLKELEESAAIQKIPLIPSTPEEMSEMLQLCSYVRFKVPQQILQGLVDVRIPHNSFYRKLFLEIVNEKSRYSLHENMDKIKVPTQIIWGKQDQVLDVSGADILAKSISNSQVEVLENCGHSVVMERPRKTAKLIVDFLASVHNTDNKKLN
Nature of the assay: biochemical. To be noted: in vitro competitive ABPP.

In assay [2] the target is T2, FAAH (Mus musculus, UniProt O08914).
T2 sequence (O08914 1-579): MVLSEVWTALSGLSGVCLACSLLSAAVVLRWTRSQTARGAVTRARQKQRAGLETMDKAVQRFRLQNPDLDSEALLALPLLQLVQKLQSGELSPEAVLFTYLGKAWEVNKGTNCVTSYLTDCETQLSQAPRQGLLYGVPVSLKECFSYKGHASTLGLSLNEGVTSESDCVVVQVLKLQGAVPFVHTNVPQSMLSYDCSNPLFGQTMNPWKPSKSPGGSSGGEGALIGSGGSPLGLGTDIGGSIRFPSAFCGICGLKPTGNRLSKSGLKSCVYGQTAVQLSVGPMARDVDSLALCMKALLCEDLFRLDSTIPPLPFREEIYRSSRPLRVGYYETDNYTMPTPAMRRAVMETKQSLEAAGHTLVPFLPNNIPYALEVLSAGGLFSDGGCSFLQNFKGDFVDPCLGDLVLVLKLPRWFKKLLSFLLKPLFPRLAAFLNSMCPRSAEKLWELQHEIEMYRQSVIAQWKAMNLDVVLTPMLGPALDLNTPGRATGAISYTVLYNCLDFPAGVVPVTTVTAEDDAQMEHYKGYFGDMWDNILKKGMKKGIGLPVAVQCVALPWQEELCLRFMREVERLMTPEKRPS
Nature of the assay: biochemical. To be noted: in vitro competitive ABPP.

Assay [3] deals with T3, MAGL (Mus musculus, UniProt O35678).
T3 sequence (O35678 1-303): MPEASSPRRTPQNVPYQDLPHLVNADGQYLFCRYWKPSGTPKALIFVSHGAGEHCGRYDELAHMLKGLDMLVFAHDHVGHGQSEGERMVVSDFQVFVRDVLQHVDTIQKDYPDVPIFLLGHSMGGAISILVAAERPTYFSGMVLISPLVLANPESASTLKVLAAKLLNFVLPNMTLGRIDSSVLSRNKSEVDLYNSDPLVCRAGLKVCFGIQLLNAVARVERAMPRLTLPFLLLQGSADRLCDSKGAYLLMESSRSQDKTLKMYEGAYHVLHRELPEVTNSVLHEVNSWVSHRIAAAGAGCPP
The assay is described as follows: biochemical. To be noted: mouse; in vitro competitive ABPP; read-out: Mouse (IC50 value, nM) MAGL.

The target of assay [4] is T1, ABHD6. The assay is described as follows: In vitro competitive activity-based protein profiling (Table 2, % inhibition at 1 μM). The assay is classed as biochemical. To be noted: read-out: % Inhibition at 1 μM ABHD6.
Assay [5] deals with T2, FAAH. The description is as above. To be noted: read-out: % Inhibition at 1 μM FAAH. Type of assay: biochemical.
For assay [6], the target named is T3, MAGL. The description is as above. To be noted: read-out: % Inhibition at 1 μM MAGL. Type of assay: biochemical. As for the experimental part: After 30 min, FP—Rh (1.0 μL, 50 μM in DMSO) was added and the mixture was incubated for another 30 min at 37° C. Reactions were quenched with SDS loading buffer (50 μL-4×) and run on SDS-PAGE.
Cell lysates were diluted with mock proteomes for use in competitive ABPP experiments.

One may read the IC50 as the concentration that gives 50% inhibition. The inhibition is the drop in the measured response relative to a control, in per cent.

Molecules are shown by their SMILES.

For `O=C(OC(C(F)(F)F)C(F)(F)F)N1CC2CN(Cc3cc(CN4CCCCC4)cc(OC(F)(F)F)c3)CC2C1` (stereo not drawn) [Example 184, 1,1,1,3,3,3-hexafluoropropan-2-yl 5-(3-(piperidin-1-ylmethyl)-5-(trifluoromethoxy)benzyl)hexahydropyrrolo[3,4-c]pyrrole-2(1H)-carboxylate], the 50% inhibitory concentration (IC50) lay within 1000 to 10000 nM at ABHD6 [1], 1000 to 10000 nM at FAAH [2] and 100 to 1000 nM at MAGL [3]. Also, the figures for the inhibition at 1 µM at ABHD6 [4], on FAAH [5] and on MAGL [6] were under 25%, under 25% and over 75%, respectively.

As to `O=C(OC(C(F)(F)F)C(F)(F)F)N1CC2CN(Cc3c(N4CC5COCC5C4)cccc3C(F)(F)F)CC2C1` (stereo not drawn) [Example 209, 1,1,1,3,3,3-hexafluoropropan-2-yl 5-(2-(tetrahydro-1H-furo[3,4-c]pyrrol-5(3H)-yl)-6-(trifluoromethyl)benzyl)hexahydropyrrolo[3,4-c]pyrrole-2(1H)-carboxylate], the IC50 at ABHD6 [1] is 1000 to 10000 nM; on FAAH [2], over 10000 nM; on MAGL [3], 100 to 1000 nM. Moreover, the inhibition at 1 µM at ABHD6 [4] was 25 to 75%; at FAAH [5], under 25%; on MAGL [6], over 75%.

`Cc1c(CN2CC3CN(C(=O)OC(C(F)(F)F)C(F)(F)F)CC3C2)cccc1N1CCC(NS(C)(=O)=O)CC1` (stereo not drawn) [Example 149, 1,1,1,3,3,3-hexafluoropropan-2-yl 5-[[3-(4-methanesulfonamidopiperidin-1-yl)-2-methylphenyl]methyl]-octahydropyrrolo[3,4-c]pyrrole-2-carboxylate]: the half-inhibitory concentration (IC50) on ABHD6 [1] was 1000 to 10000 nM; on FAAH [2], 1000 to 10000 nM; at MAGL [3], under 100 nM. Also, the inhibition at 1 µM at ABHD6 [4] was under 25%; on FAAH [5] it was 25 to 75%; at MAGL [6] it was over 75%.

`Cc1ccc(CN2CC3CN(C(=O)OC(C(F)(F)F)C(F)(F)F)CC3C2)cc1-c1ccccc1` (stereo not drawn) [Example 206, 1,1,1,3,3,3-hexafluoropropan-2-yl 5-((6-methyl-[1,1′-biphenyl]-3-yl)methyl)hexahydropyrrolo[3,4-c]pyrrole-2(1H)-carboxylate]: the IC50 lay in the range of 1000 to 10000 nM at ABHD6 [1], 1000 to 10000 nM on FAAH [2] and 100 to 1000 nM at MAGL [3]. Also, the inhibition at 1 µM was 25 to 75% on ABHD6 [4], 25 to 75% on FAAH [5] and over 75% on MAGL [6].

As for `O=C(OC(C(F)(F)F)C(F)(F)F)N1CC2CN(Cc3ccc(C(F)F)cc3N3CCOCC3)CC2C1` (stereo not drawn) [Example 203, 1,1,1,3,3,3-hexafluoropropan-2-yl 5-(4-(difluoromethyl)-2-morpholinobenzyl)hexahydropyrrolo[3,4-c]pyrrole-2(1H)-carboxylate], the 50% inhibitory concentration (IC50) was 1000 to 10000 nM on ABHD6 [1], 1000 to 10000 nM at FAAH [2] and under 100 nM on MAGL [3]. Also, the inhibition at 1 µM on ABHD6 [4] is 25 to 75%; at FAAH [5], under 25%; on MAGL [6], over 75%.

For the compound `Cc1c(CN2CC3CN(C(=O)OC(C(F)(F)F)C(F)(F)F)CC3C2)cccc1C(=O)N1CCCC1` (stereo not drawn) [Example 186, 1,1,1,3,3,3-hexafluoropropan-2-yl 5-(2-methyl-3-(pyrrolidine-1-carbonyl)benzyl)hexahydropyrrolo[3,4-c]pyrrole-2(1H)-carboxylate], the 50% inhibitory concentration (IC50) at ABHD6 [1] was 1000 to 10000 nM; at FAAH [2] it was 1000 to 10000 nM; on MAGL [3] it was under 100 nM. The inhibition at 1 µM at ABHD6 [4] is 25 to 75%; at FAAH [5], under 25%; at MAGL [6] it was over 75%.

For the compound `CC(=O)N1CCN(c2cc(Cl)ccc2CN2CC3CN(C(=O)OC(C(F)(F)F)C(F)(F)F)CC3C2)CC1` (stereo not drawn) [Example 21, 1,1,1,3,3,3-Hexafluoropropan-2-yl 5-[[2-(4-acetylpiperazin-1-yl)-4-chlorophenyl]methyl]-octahydropyrrolo[3,4-c]pyrrole-2-carboxylate], the IC50 was 100 to 1000 nM at ABHD6 [1], 1000 to 10000 nM at FAAH [2] and under 100 nM on MAGL [3]. The inhibition at 1 µM on ABHD6 [4] is 25 to 75%; on FAAH [5] it was 25 to 75%; at MAGL [6], over 75%.

As for `CC(=O)N1CCC(n2nc(C)cc2CN2CC3CN(C(=O)OC(C(F)(F)F)C(F)(F)F)CC3C2)CC1` (stereo not drawn) [Example 60, 1,1,1,3,3,3-Hexafluoropropan-2-yl 5-[[1-(1-acetylpiperidin-4-yl)-3-methyl-1H-pyrazol-5-yl]methyl]-octahydropyrrolo[3,4-c]pyrrole-2-carboxylate], the half-inhibitory concentration (IC50) at ABHD6 [1] is 1000 to 10000 nM; at FAAH [2] it was over 10000 nM; at MAGL [3], 100 to 1000 nM. For the same compound, the inhibition at 1 µM at ABHD6 [4] is under 25%; at FAAH [5], under 25%; at MAGL [6], over 75%.

For the compound `Cc1cccc(CN2CC3CN(C(=O)OC(C(F)(F)F)C(F)(F)F)CC3C2)c1N1CCOCC1` (stereo not drawn) [Example 41, 1,1,1,3,3,3-Hexafluoropropan-2-yl 5-[[3-methyl-2-(morpholin-4-yl)phenyl]methyl]-octahydropyrrolo[3,4-c]pyrrole-2-carboxylate], the IC50 at ABHD6 [1] was 1000 to 10000 nM; on FAAH [2], 1000 to 10000 nM; on MAGL [3] it was 100 to 1000 nM. Also, the inhibition at 1 µM on ABHD6 [4] is under 25%; on FAAH [5] it was under 25%; at MAGL [6] it was over 75%.

In the case of `O=C(OC(C(F)(F)F)C(F)(F)F)N1CC2CN(Cc3ccc(C(F)(F)F)cc3N3CC4COCC4C3)CC2C1` (stereo not drawn) [Example 210, 1,1,1,3,3,3-hexafluoropropan-2-yl 5-(2-(tetrahydro-1H-furo[3,4-c]pyrrol-5(3H)-yl)-4-(trifluoromethyl)benzyl)hexahydropyrrolo[3,4-c]pyrrole-2(1H)-carboxylate], the values for the 50% inhibitory concentration (IC50) on ABHD6 [1], at FAAH [2] and at MAGL [3] were 1000 to 10000 nM, 1000 to 10000 nM and under 100 nM, respectively. The inhibition at 1 µM is under 25% on ABHD6 [4], under 25% on FAAH [5] and over 75% on MAGL [6].

Consider `O=C(ON1C(=O)CCC1=O)N1CC2CN(Cc3cccc(-c4ccccc4)c3)CC2C1` (stereo not drawn) [Example 88, 2,5-Dioxopyrrolidin-1-yl 5-[(3-phenylphenyl)methyl]-octahydropyrrolo[3,4-c]pyrrole-2-carboxylate], for which the values for the IC50 on ABHD6 [1], on FAAH [2] and on MAGL [3] were 1000 to 10000 nM, 100 to 1000 nM and under 100 nM, respectively. For the same compound, the inhibition at 1 µM on ABHD6 [4] is 25 to 75%; at FAAH [5], over 75%; at MAGL [6], over 75%.

As for `Cc1c(CN2CC3CN(C(=O)ON4C(=O)CCC4=O)CC3C2)cccc1N1CCC(F)(F)CC1` (stereo not drawn) [Example 144, 2,5-dioxopyrrolidin-1-yl 5-[[3-(4,4-difluoropiperidin-1-yl)-2-methylphenyl]methyl]-octahydropyrrolo[3,4-c]pyrrole-2-carboxylate], the IC50 at ABHD6 [1] was 1000 to 10000 nM; on FAAH [2] it was 100 to 1000 nM; at MAGL [3], under 100 nM. Also, the inhibition at 1 µM at ABHD6 [4] was under 25%; at FAAH [5], over 75%; on MAGL [6], over 75%.

As for `O=C(ON1C(=O)CCC1=O)N1CC2CN(Cc3ccc(Cl)cc3N3CCOC4CCCC43)CC2C1` (stereo not drawn) [Example 82, 2,5-Dioxopyrrolidin-1-yl 5-(4-chloro-2-(hexahydrocyclopenta[b][1,4]oxazin-4(4aH)-yl)benzyl)hexahydropyrrolo[3,4-c]pyrrole-2(1H)-carboxylate], the IC50 is 1000 to 10000 nM on ABHD6 [1], 1000 to 10000 nM at FAAH [2] and 100 to 1000 nM on MAGL [3]. Besides, the inhibition at 1 µM is 25 to 75% on ABHD6 [4], under 25% on FAAH [5] and 25 to 75% on MAGL [6].
